Assay results taken from article PMC3025325, “Identification of a κ-opioid agonist as a potent and selective lead for drug development against human African trypanosomiasis” (Biochemical Pharmacology, 2010).
Like-named read-outs stand apart in the source and are kept apart here.

Experiments:
[1] = tested on: T. brucei; assay: DMSO tolerance of the resazurin assay, T. brucei; type: cell-based
Method: (§1) DMSO was serially diluted across a 96-well plate in 200 μl of the appropriate medium. For T. brucei, 100 μl aliquots were then transferred to a plate containing 100 μl cells at 2 × 10^3 ml^−1. Human fibroblasts were plated at 2 × 10^4 ml^−1 in 100 μl of medium and incubated overnight to allow cells to adhere before the addition of medium containing DMSO (100 μl) over a range of concentrations. Parasites and mammalian cells were then incubated for 3 days, after which 20 μl 500-μM resazurin was added to each well. Plates were incubated for a further 4 h before measuring fluorescence as above.

[2] = tested on: human fibroblasts (MRC5); assay: DMSO tolerance of the resazurin assay, human fibroblasts; type: cell-based
Method: as §1

[3] = tested on: bloodstream forms of Trypanosoma brucei; assay: Resazurin cell viability assay, EC50 determinations against T. brucei; type: cell-based, T. b. brucei (strain 427)
[4] = tested on: MRC5 cells; assay: Resazurin cell viability counter-screen, EC50 determinations against mammalian cells; type: cell-based, human; details: for EC50: read-out: EC50 vs. MRC5
[5] = tested on: T. brucei
[6] = tested on: T. brucei; assay: microbe, parasite or virus in culture; details: Trypanosoma brucei, read-out: EC50 by direct counting of cell growth
[7] = Trypanosoma brucei, 72 h, read-out: EC50 vs. T. brucei
[8] = Trypanosoma brucei, 72 h, read-out: EC50 of standard drugs against T. brucei
[9] = read-out: EC50 of standard drugs against T. brucei

C[S+](C)[O-] [DMSO]
IC50 of DMSO ([1]; 3 days incubation): 0.80 ± 0.06 % (v/v)
Attenuation of fluorescence ([1]; DMSO 0.5%): 20%
IC50 of DMSO ([2]; 3 days incubation): 1.04 ± 0.08 % (v/v)
Attenuation of fluorescence ([2]; DMSO 0.5%): 15%

CC[C@@]1(O)C(=O)OCc2c1cc1n(c2=O)Cc2cc3ccccc3nc2-1 [(S)-(+)-Camptothecin]
EC50 ([3]; read-out: EC50 vs. T. brucei): 530 ± 13 nM
Selectivity [4]: 1.5
EC50 [4]: 800 ± 99 nM

Clc1ccc(C(c2ccc(Cl)cc2)n2cc[n+](CC(OCc3ccc(Cl)cc3Cl)c3ccc(Cl)cc3Cl)c2)cc1 (centres unmarked) [Calmidazolium chloride]
EC50 [3, 7]: 510 ± 66 nM
Selectivity [4]: 13
EC50 ([4]; Homo sapiens, MRC5, 72 h): 6600 ± 750 nM

O=c1[nH]c2ccccc2n1C1CCN(CCCC(c2ccc(F)cc2)c2ccc(F)cc2)CC1 [Pimozide]
EC50 [3, 7]: 340 ± 19 nM
Selectivity [4]: 41

CC(C)[C@H](CO)Nc1nc(Nc2cccc(Cl)c2)c2ncn(C(C)C)c2n1 [Purvalanol A]
EC50 [3, 7]: 820 ± 55 nM
Selectivity [4]: 12

NCCCC(N)(C(=O)O)C(F)F (centres unmarked) [eflornithine, difluoromethylornithine]
EC99 (calculated from EC50 and Hill slope) [3]: 77000 nM
EC50 [3, 8]: 22400 ± 1100 nM
EC50 [3, 9]: 22000 nM
Time after which cell growth was arrested ([5]; 10 × EC50): 30 h
Effect on T. brucei culture growth ([5]; 10 × EC50, 3 days): cytostatic effect
EC50 [6]: 17100 ± 100 nM

N=C(N)c1ccc(OCCCCCOc2ccc(C(=N)N)cc2)cc1 [Pentamidine isethionate]
EC99 (calculated/predicted from EC50 and Hill slope) [3]: 37 nM
EC50 [3, 8]: 8.1 ± 0.54 nM
EC50 [3, 9]: 8 nM
Selectivity [4]: 3400
Effect on T. brucei culture growth [5]: cytocidal effect
Time for cell density to drop below the limit of detection (1 × 10^3 cells ml−1) [5]: ≤ 40 h
